Laboratory results from publication PMC7687371, “Quantitative in Vitro to in Vivo Extrapolation (QIVIVE) for Predicting Reduced Anogenital Distance Produced by Anti-Androgenic Pesticides in a Rodent Model for Male Reproductive Disorders” (Environmental Health Perspectives, 2020).
pIC50: −log10 of the molar value. Where two headings read alike, the source gives them in different places. Marks after values point to notes of the source that are not given here.

Tests used:
[1] = parameters: method as in U.S. EPA 2012; details: EPI Suite, experimental preferred over modeled; ref U.S. EPA 2012; cited from earlier work
[2] = molecular target: androgen receptor (AR); parameters: method as in Vinggaard et al. (2008); details: ref Vinggaard et al. (2008); read-out: AR antagonism (IC50); cited from earlier work
[3] = PBK model first-order kinetic parameters fitted to in vivo ADME data; parameters: species or system rat; details: PBK model parameter; for Metabolism rate in liver, Total (L/h) KMetab: metabolic clearance
[4] = parameters: method as in Sierra-Santoyo et al. (2008); details: conversion of parent compound into active metabolite; ref Sierra-Santoyo et al. (2008); cited from earlier work
[5] = Fetal chemical exposure analysis (LC-QTOF) at GD21; format: in vivo, rat; details: for Measured concentration in male fetuses: Sprague-Dawley, rat, in vivo, 40 mg/kg/day
Procedure: Dams were decapitated under CO2 /oxygen anesthesia at GD21 and fetuses collected by cesarean section. Prior to decapitation of the fetuses, their BWs and AGDs were recorded. Blood from the dams was collected in heparinized vacutainer tubes, centrifuged at 125×g for 10 min at 4°C to prepare plasma, and, together with the amniotic fluid, frozen directly. Pooled trunk blood from all female and male fetuses of the same litter (female and male blood separately) was collected into heparin-treated capillary tubes approximately 90 min after dosing and the plasma was prepared and stored at −80°C until analysis for pesticides and selected metabolites by liquid chromatography quadrupole time-of-flight mass spectroscopy (LC-QTOF). Details about the LC-QTOF analyses are provided in “Method S1” in Supplemental Material. Amniotic fluid was collected from fetuses by pipetting, pooled within each litter, snap frozen in liquid nitrogen, and subsequently stored at −80 °C .
Method S1. Chemical analysis of pesticide levels
Acetonitrile, methanol, formic acid and 25% ammonium hydroxide, all of LC-MS grade and ethyl acetate were obtained from Sigma Aldrich, Schneldorf, Germany. Isolute bulk C-18 sorbent was obtained from Biotage, Sweden and was washed with acetonitrile and ethyl acetate and dried prior to use. Water was purified on a Milli Q system, Millipore Corporation, US.
Pesticide standards were purchased from Dr. Ehrenstorfer (Augsburg, Germany), LGC-standards (Teddington, Middlesex, UK) and Sigma Aldrich (St. Louis, MO, USA). Acetonitrile used as solvents for the LC-QTOF was LiChrosolv Hypergrade. An ESI-L low concentration tuning mix from Agilent (Santa Clara, CA, USA) was used for tuning of the TOF. A reference solution was prepared containing Purine and HP0921 from Agilent (Santa Clara, CA, USA).
Stock solutions of the pesticides were prepared at 1 mg/ml in acetonitrile, methanol or toluene.
Standard mixtures containing the test compounds were prepared at a concentration of 10 µg/ml acetonitrile and used for preparation of calibration solutions. Isomers eluting very close to each other were avoided in these mixtures. […]
added 200 µl of ice-cold acetonitrile in Eppendorf tubes. Internal standard was added in the form of 10 µl TPP (5 µg/ml) and the extraction was performed by whirl mixing. The tube was then stored on ice for 5 min and then centrifuged at 10,000 x g for 10 min at 4 °C (Ole Dich Instrument, Denmark). An aliquot of the supernatant was transferred to filter vials (0.45 µm) and analysed by […]
Quality control samples were included in each analytical run. These were prepared using the same procedure as for the samples, though using amniotic fluid from untreated control Wistar rats extracted with acetonitrile containing three different levels of the relevant pesticide standards. The resulting spike levels were 0.04, 0.013 and 0.13 µg/ml. […]
fluid or plasma from Sprague Dawley rats was transferred to an Eppendorf vial and added 150 µl of acetonitrile. 50 mg of isolute C-18 sorbent was added to the tube, which was shaken for 5 min, […]
cooled to 4 °C and centrifuged at 10,000 x g for 10 min at 4 °C (Ole Dich Instrument makers, Denmark). 20 µl of the supernatant was transferred to an HPLC vial and mixed with 80 µl of 5%- 75% acetonitrile (this percentage was analyte dependent) prior to analysis by LC-MS.LC -QTOF […]
Pesticide screening was carried out using a liquid chromatography-electrospray ionization-quadrupole-time of flight-mass spectrometer.
The LC system was connected to a Bruker Daltonics, maXis qTOF mass spectrometer equipped with an electrospray ion source operated in positive ion mode (Bruker Daltonics, Bremen, Germany). The ion source settings were: nebulizer pressure 2 bars, drying gas flow 8 l/min, dry gas temperature 200 °C, capillary voltage 2500 V. The scan range was from 80 to 700 m/z with an acquisition rate of 2 Hz. Sodium formate dissolved in 50% 2-propanol was introduced in the ion […]

[6] = tested on: NCI-H295R cells; assay: H295R steroidogenesis assay; format: cell-based, human; details: for Effect on androgen (steroid) synthesis, in words: H295R steroidogenesis assay
Procedure: To capture effects on steroid hormone synthesis (testosterone and androstendione), we tested all 12 pesticides in the H295R assay with the human adrenocortical carcinoma cell line NCI-H295R (American Type Culture Collection no. CRL-2,128, LGC Standards), as previously described ([Hecker et al. 2011]; [Rosenmai et al. 2013]). In brief, cells were cultured in DMEM/F-12 +glutamine medium with HEPES buffer (Invitrogen) containing 1% insulin-transferrin-sodium selenite plus Premix (VWR) and 2.5% Nu-Serum (BD Bioscience) at 37°C in a 5% CO2 atmosphere. The day before exposure, cells were seeded 300,000 per well in clear 24-well plates (VWR Corning). Cells were exposed for 48 h to control (Forskolin: 1μM , 10μM (Sigma-Aldrich); and Prochloraz: 0.3μM , 3μM (VWR-Bie and Berntsen) or test compounds. The vehicle (DMSO) concentration was kept constant in all wells (0.1%). After 48 h, the exposure culture medium was removed and stored at –80°C until the levels of 10 steroid hormones (testosterone, androstenedione, aldosterone, corticosterone, cortisol, dehydroepiandrosterone, 17α-hydroxyprogesterone , progesterone, estrone, and 17β-estradiol ) were quantified using the high-performance liquid chromatography–tandem mass spectrometry method described elsewhere ([Mortensen and Pedersen 2007]). Minor modifications were made to accommodate a smaller sample size and to include more hormones. The liquid chromatography system (Agilent 1100) was equipped with an Atlantis C18 column ( 2.1×150mm , 3μm ) (Waters Corp.) maintained at 40°C. The sample injection volume was 50μL . […] The mass spectrometer was a Quattro Ultima triple quadrupole instrument (Waters Corp.). […] Each pesticide was tested in 2-fold serial dilutions at concentrations between 0.8 and 50μM in three independent experiments, and hormone levels were normalized to the solvent controls containing 0.1% DMSO. Cell viability was evaluated by using the 3-(4,5-dimethylthiazol-2-yl)-2,5- diphenyltetrazolium bromide (MTT) assay (Sigma) as previously described ([Hecker et al. 2011]; [Rosenmai et al. 2013]). Fluorescence was measured (excitation 560 nm , emission 590 nm ) using a Wallac Victor2 1420 multilabel counter (PerkinElmer).

[7] = tested on: NCI-H295R cells; assay: Cell viability (MTT) in the H295R assay; format: cell-based, human
Procedure: To capture effects on steroid hormone synthesis (testosterone and androstendione), we tested all 12 pesticides in the H295R assay with the human adrenocortical carcinoma cell line NCI-H295R (American Type Culture Collection no. CRL-2,128, LGC Standards), as previously described ([Hecker et al. 2011]; [Rosenmai et al. 2013]). In brief, cells were cultured in DMEM/F-12 +glutamine medium with HEPES buffer (Invitrogen) containing 1% insulin-transferrin-sodium selenite plus Premix (VWR) and 2.5% Nu-Serum (BD Bioscience) at 37°C in a 5% CO2 atmosphere. The day before exposure, cells were seeded 300,000 per well in clear 24-well plates (VWR Corning). Cells were exposed for 48 h to control (Forskolin: 1μM , 10μM (Sigma-Aldrich); and Prochloraz: 0.3μM , 3μM (VWR-Bie and Berntsen) or test compounds. The vehicle (DMSO) concentration was kept constant in all wells (0.1%). After 48 h, the exposure culture medium was removed and stored at –80°C until the levels of 10 steroid hormones (testosterone, androstenedione, aldosterone, corticosterone, cortisol, dehydroepiandrosterone, 17α-hydroxyprogesterone , progesterone, estrone, and 17β-estradiol ) were quantified using the high-performance liquid chromatography–tandem mass spectrometry method described elsewhere ([Mortensen and Pedersen 2007]). Minor modifications were made to accommodate a smaller sample size and to include more hormones. […]

[8] = ref Wetmore et al. (2012); cited from earlier work
[9] = tested on: pregnant dams and pups; details: ref EFSA's Draft Assessment Reports (DARs); cited from earlier work
[10] = tested on: Wistar rats; details: male, rat, in vivo, 40 mg/kg/day
Procedure: In total, four in vivo exposure studies were conducted with pesticide exposures to pregnant rats during gestation and lactation to the selected compound (Table 2). […] For one selected dose of each compound, the internal body concentrations in dams and fetuses were determined by cesarean section at GD21. Due to the study outcomes from the third study, we conducted a fourth follow-up study on dimethomorph (Study 4).
Pup weights and AGD were measured after birth at PD1 using a stereomicroscope with a micrometer eyepiece and were determined as the distance between the genital papilla and the anus. To discriminate between an anti-androgenic effect and stunted growth, the AGD index (AGDI) was calculated by dividing AGD by the cube root of the BW (as described by [Hass et al. 2007]). The estimation of AGDI effect doses by regression modeling required a standardized AGDI scale. Therefore, we normalized the AGDI values in relation to the dynamic range spanned by the mean AGDI of the male and the female controls as (38) normalized AGDI=mean(AGDI of male controls)−AGDI(exposed animal)/mean(AGDI of male controls)−mean(AGDI of female controls).

[11] = tested on: Wistar rats; details: rat, in vivo, cited from earlier work

## C=CC(C)(OC(=O)Nc1cc(Cl)cc(Cl)c1)C(=O)O (centres unmarked) [M1, 2-[[(3,5-dichlorophenyl)-carbamoyl]oxy]-2-methyl-3-butenoic acid]
[1]
  log Kow: 3.52
[2]
  pIC50: 5.70
[3]
  Urine excretion rate from kidney (L/h) KUrine: 0.2 L/h
[4]
  Metabolism rate in liver, Metabolite (L/h): 2.8^h L/h
[5]
  Measured concentration in male fetuses: 18.0 µM

## C=CC(C)(O)C(=O)Nc1cc(Cl)cc(Cl)c1 (centres unmarked) [M2, 3′,5′-dichloro-2-hydroxy-2-methylbut-3-enanilide]
[1]
  log Kow: 2.95
[2]
  pIC50: 6.70
[3]
  Urine excretion rate from kidney (L/h) KUrine: 0.2 L/h
[4]
  Metabolism rate in liver, Metabolite (L/h): 0.9^h L/h
[5]
  Measured concentration in male fetuses: 3.4 µM

## Fc1ccc(Oc2ccnc3cc(Cl)cc(Cl)c23)cc1 [Quinoxyfen, quinoxyphen]
[6]
  Effect on androgen (steroid) synthesis, in words: inhibited testosterone synthesis
[6]; Homo sapiens, NCI-H295R, read-out: Testosterone inhibition (IC20 µM)
  IC20: 1000 nM
[6]; multiple contrast tests
  Androstendione, LOEC: 1.6 µM
  Corticosterone, LOEC: 3.1 µM
  DHEA, LOEC: 1.6 µM
  Estradiol, LOEC: 25 µM
  Progesterone, LOEC: 50 µM
  Testosterone, lowest observed effect concentration (LOEC): 1.6 µM
[1]
  log Kow: 4.66
[7]
  Cytotoxicity in H295R assay, concentrations: cytotoxicity was observed at the same concentrations
[8]
  Unbound plasma fraction (%): 5.0^g %
[3]
  Biliary excretion rate (L/h) KBiliary: 1.4 L/h
  Fecal excretion rate from gut (L/h) KFeces: 2 L/h
  Portal GI absorption rate into liver (L/h) KAS: 1 L/h
  Urine excretion rate from kidney (L/h) KUrine: 0.01 L/h
  Metabolism rate in liver, Total (L/h) KMetab: 0.3 L/h
[9]
  Critical toxicity: Reduced pup BW during lactation, liver hypertrophy
  LOAEL (mg/kg bw): 100 mg/kg bw
  NOAEL (mg/kg bw): 25 mg/kg bw

## C=CC1(C)OC(=O)N(c2cc(Cl)cc(Cl)c2)C1=O (centres unmarked) [Vinclozolin, vinclozolin]
[6]
  Effect on androgen (steroid) synthesis, in words: negligible activity in terms of suppressing steroid synthesis
[10]
  AGDI reduction (%): 26^d %
[1]
  log Kow: 3.10
[8]
  Unbound plasma fraction (%): 59^g %
[3]
  Portal GI absorption rate into liver (L/h) KAS: 0.5 L/h
  Urine excretion rate from kidney (L/h) KUrine: 0.05 L/h
  Metabolism rate in liver, Total (L/h) KMetab: 1.4 L/h
[11]; 5 mg/kg
  AGDI (normalised to male and female controls) mean: 0.96
[11]; 10 mg/kg
  AGDI (normalised to male and female controls) mean: 0.80
[11]; 20 mg/kg
  AGDI (normalised to male and female controls) mean: 0.83
[11]; 24.5 mg/kg
  AGDI (normalised to male and female controls) mean: 0.93
[11]; 40 mg/kg
  AGDI (normalised to male and female controls) mean: 0.72
[11]; 80 mg/kg
  AGDI (normalised to male and female controls) mean: 0.46
[11]; 95.9 mg/kg
  AGDI (normalised to male and female controls) mean: 0.42
[11]; 160 mg/kg
  AGDI (normalised to male and female controls) mean: 0.25
[11]
  AGDI ED10: 9.2 mg/kg BW
  AGDI ED50: 78.7 mg/kg BW
[5]; fetal plasma GD21, mean litter value, dams dosed 40 mg/kg BW per day parent compound (Study 1)
  Measured concentration in male fetuses (μM): <0.15 ^e μM
